Measurements published in patent publication US20170291958A1, “Compositions and Methods For the Modulation of Ras Proteins” (NEW YORK UNIVERSITY, priority 2016, published 2017).
“Also recorded” adds a separate entry of the source.

What was measured:
Type in all cases: cell-based
BxPC-3 cells = assay: Wound-healing assay, BxPC-3 cells; details: BxPC-3 cells that harbor no KRAS mutation, various concentrations, 18 h (FIG. 7B, 7D)
Method: (§1) FIGS. 7A-7E. SUMO inhibitor blocks migration of pancreatic cancer cells with KRASV12 mutation. (FIG. 7A) MiaPaCa-2 cells transfected with various KRAS expression constructs or the vector as indicated for 24 h. A GFP-expressing plasmid was used for co-transfection. Transfected cells were then used for wound-healing assays as described in Methods. Representative images of the assay and GFP expression are shown. (FIG. 7B) Both BxPC-3 and MiaPaCa-2 cells were employed for wound-healing assays. Cells with open scratches were treated with various concentrations of 2-D08 for 18 h. Representative images of cells before and after recovery in the presence of 2-D08 for 18 h are shown. (FIG. 7C & FIG. 7D) Data were summarized from experiments as shown in A and B, respectively. (FIG. 7E) MiaPaCa-2 cells treated with or without 2-D08 were lysed and equal amounts of cell lysates were blotted with antibodies to N-Cadherin, ZEB1/TCF8, ZO-1, PARP-1 and B-actin, respectively.
(§2) RAS proteins were the first, and remain the best-studied, oncoproteins. However, to date no compounds that target RAS have been approved for clinic applications for cancer treatment. As a proof-of-principle study, we next determined whether 2-D08 that blocks RAS sumoylation (FIG. 2A) would suppress tumor cell migration in a KRAS-dependent manner. […]

MiaPaCa-2 cells = assay: Wound-healing assay, MiaPaCa-2 cells; details: MiaPaCa-2 cells (KRASV12), various concentrations, 18 h (FIG. 7B, 7D)
Method: as §1, §2

KRAS sumoylation = KRAS sumoylation in transfected MiaPaCa-2 cells (Flag immunoprecipitation, HA blot); details: MiaPaCa-2 cells transfected with Flag-KRAS and HA-SUMO3, treated 18 h (FIG. 2A)
Method: FIGS. 2A-2E. Lysine 42 is a primary site for sumoylation. (FIG. 2A) MiaPaCa-2 cells were transfected with Flag-KRAS and HA-SUMO3 expression constructs for 24 h and then treated with or without 2-D08 for 18 h. Cells were then lysed and equal amounts of the lysates were immunoprecipitated with the anti-Flag antibody. Flag precipitates, along with lysate inputs, were blotted with antibodies to HA and Flag, respectively. (FIG. 2B) HEK293T cells were co-transfected with plasmid constructs expressing Flag-KRAS, HA-SUMO3, and SENP isoforms as indicated. Equal amounts of protein lysates were immunoprecipitated with the anti-Flag antibody. Flag immunoprecipitates were immunoblotted with antibodies to Flag or HA. […]
Total cell lysates were prepared in a buffer [50 mM Tris-HCl (pH 7.5), 150 mM NaCl, 1% IGEPAL, 0.1% SDS, and 0.5% sodium deoxycholate] supplemented with a mixture of protease and phosphatase inhibitors. […] Protein concentrations were measured using the bicinchoninic acid protein assay reagent kit (Pierce Chemical Co). […]
HEK-293T cells were lysed in TBSN buffer [20 mM Tris-Cl (pH 8.0), 150 mM NaCl, 0.5% NP-40, 5 mM EGTA, 1.5 mM EDTA, 0.5 mM Na3VO4, and […]-Glycerol phosphate]. […] After incubation, proteins bound to each resin were washed extensively with the binding buffer, eluted in the SDS-PAGE sample buffer, and analyzed by SDSPAGE.

[1] = tested on: ZEB1/TCF8, ZO-1 expression in MiaPaCa-2 cells; assay: Immunoblot of migration/EMT gene products in MiaPaCa-2 cells
Method: as §1
RAS proteins were the first, and remain the best-studied, oncoproteins. However, to date no compounds that target RAS have been approved for clinic applications for cancer treatment. As a proof-of-principle study, we next determined whether 2-D08 that blocks RAS sumoylation (FIG. 2A) would suppress tumor cell migration in a KRAS-dependent manner.
Total cell lysates were prepared in a buffer [50 mM Tris-HCl (pH 7.5), 150 mM NaCl, 1% IGEPAL, 0.1% SDS, and 0.5% sodium deoxycholate] supplemented with a mixture of protease and phosphatase inhibitors. HEK293T Tet-on cells were engineered to express KRASV12 or KRASV12/42R mutants in the presence of doxycycline. At various times post addition of doxycycline, cells were collected and lysed in the same buffer as above. Protein concentrations were measured using the bicinchoninic acid protein assay reagent kit (Pierce Chemical Co). Equal amounts of protein lysates from various samples were used for SDS-PAGE analysis followed by immunoblotting. […]

[2] = MiaPaCa-2 cells, immunoblot (FIG. 7E)

`O=c1cc(-c2ccc(O)c(O)c2O)oc2ccccc12` [2-D08, 2-(2,3,4-Trihydroxyphenyl)-4H-chromen-4-one] was tested, and the “cell migration (wound healing)” value (BxPC-3 cells) was “did not have an effect on inhibiting cell migration”, the “cell migration (wound healing)” value (MiaPaCa-2 cells) was “blocked MiaPaCa-2 cell migration in a concentration-dependent manner; also recorded: reduces migration rate of pancreatic cancer cells with KRASV12 in a concentration-dependent manner” and the KRAS sumoylation (KRAS sumoylation) was “blocked KRAS sumoylation in a concentration-dependent manner”. The “expression of ZEB1/TCF8” value [1, 2] was “suppressed expression of ZEB1/TCF8”, the “expression of ZO-1” value [1, 2] was “promoted expression of ZO-1” and the “expression of genes involved in EMT” value ([1]; pancreatic cancer cells with KRASV12 (FIG. 7)) was “suppresses expression of genes involved in EMT”.
